Laboratory results reported in US20240376121A1, “COMPOUNDS AND USES THEREOF” (Foghorn Therapeutics Inc., priority 2021, published 2024).

Assays:
HiBit-BRM fusion protein = target: T1, HiBit-BRM fusion protein (Homo sapiens, UniProt P51531); assay: HiBiT-BRM cell-based degradation assay (Nano-Glo HiBiT Lytic Detection); details: stable HeLa cell line expressing HiBiT-BRM, 24 h incubation; for BRM HiBit Degradation Maximum (%): top dose 30 μM; for DC50: read-out: BRM HiBit Degradation IC50
T1 construct: expressed in transfected cells
Experimental: (§1) Procedure: A stable HeLa cell line expressing HiBiT-BRM was generated. On day 0, 5000 cells were seeded in 40 μL of media into each well of 384-well cell culture plates. On day 1, cells were treated with 120 nL DMSO or 120 nL of 3-fold serially DMSO-diluted compounds (10 points in duplicate with 30 μM as final top dose). Subsequently plates were incubated for 24 h in a standard tissue culture incubator and equilibrated at room temperature for 15 minutes. Nano-Glo HiBiT Lytic Detection System (Promega N3050) reagent was freshly prepared and 20 ul was added to each well. Upon addition of this LgBit-containing reagent, the HiBiT and LgBiT proteins associate to form the luminescent NanoBiT luciferase. The plates were shaken for 10 minutes at room temperature and the bioluminescence read using an EnVision plate reader (PerkinElmer).
(§2) The degradation % was calculated using the following formula: % degradation=100%−100%×(LumSample−LumLC)/(LumHC−LumLC). DMSO treated cells are employed as High Control (HC) and 2 μM of a known BRM/BRG1 degrader standard treated cells are employed as Low Control (LC).

[1] = target: T2, HiBit-BRG1 fusion protein (Homo sapiens, UniProt P51532); assay: HiBiT-BRG1 cell-based degradation assay (Nano-Glo HiBiT Lytic Detection); details: stable HeLa cell line expressing HiBit-BRG1 and LgBit, 24 h incubation; for Dmax: top dose 30 μM, read-out: BRG1 HiBit Degradation Maximum (%); for DC50: read-out: BRMG1 HiBit Degradation IC50
T2 construct: expressed in transfected cells
Experimental: as §1
For measurement of BRG1 degradation, a stable HeLa cell line expressing HiBit-BRG1 and LgBit was generated. The same protocol as above was then followed.
as §2

T1 sequence (P51531 whole entry, the tested form may be a part): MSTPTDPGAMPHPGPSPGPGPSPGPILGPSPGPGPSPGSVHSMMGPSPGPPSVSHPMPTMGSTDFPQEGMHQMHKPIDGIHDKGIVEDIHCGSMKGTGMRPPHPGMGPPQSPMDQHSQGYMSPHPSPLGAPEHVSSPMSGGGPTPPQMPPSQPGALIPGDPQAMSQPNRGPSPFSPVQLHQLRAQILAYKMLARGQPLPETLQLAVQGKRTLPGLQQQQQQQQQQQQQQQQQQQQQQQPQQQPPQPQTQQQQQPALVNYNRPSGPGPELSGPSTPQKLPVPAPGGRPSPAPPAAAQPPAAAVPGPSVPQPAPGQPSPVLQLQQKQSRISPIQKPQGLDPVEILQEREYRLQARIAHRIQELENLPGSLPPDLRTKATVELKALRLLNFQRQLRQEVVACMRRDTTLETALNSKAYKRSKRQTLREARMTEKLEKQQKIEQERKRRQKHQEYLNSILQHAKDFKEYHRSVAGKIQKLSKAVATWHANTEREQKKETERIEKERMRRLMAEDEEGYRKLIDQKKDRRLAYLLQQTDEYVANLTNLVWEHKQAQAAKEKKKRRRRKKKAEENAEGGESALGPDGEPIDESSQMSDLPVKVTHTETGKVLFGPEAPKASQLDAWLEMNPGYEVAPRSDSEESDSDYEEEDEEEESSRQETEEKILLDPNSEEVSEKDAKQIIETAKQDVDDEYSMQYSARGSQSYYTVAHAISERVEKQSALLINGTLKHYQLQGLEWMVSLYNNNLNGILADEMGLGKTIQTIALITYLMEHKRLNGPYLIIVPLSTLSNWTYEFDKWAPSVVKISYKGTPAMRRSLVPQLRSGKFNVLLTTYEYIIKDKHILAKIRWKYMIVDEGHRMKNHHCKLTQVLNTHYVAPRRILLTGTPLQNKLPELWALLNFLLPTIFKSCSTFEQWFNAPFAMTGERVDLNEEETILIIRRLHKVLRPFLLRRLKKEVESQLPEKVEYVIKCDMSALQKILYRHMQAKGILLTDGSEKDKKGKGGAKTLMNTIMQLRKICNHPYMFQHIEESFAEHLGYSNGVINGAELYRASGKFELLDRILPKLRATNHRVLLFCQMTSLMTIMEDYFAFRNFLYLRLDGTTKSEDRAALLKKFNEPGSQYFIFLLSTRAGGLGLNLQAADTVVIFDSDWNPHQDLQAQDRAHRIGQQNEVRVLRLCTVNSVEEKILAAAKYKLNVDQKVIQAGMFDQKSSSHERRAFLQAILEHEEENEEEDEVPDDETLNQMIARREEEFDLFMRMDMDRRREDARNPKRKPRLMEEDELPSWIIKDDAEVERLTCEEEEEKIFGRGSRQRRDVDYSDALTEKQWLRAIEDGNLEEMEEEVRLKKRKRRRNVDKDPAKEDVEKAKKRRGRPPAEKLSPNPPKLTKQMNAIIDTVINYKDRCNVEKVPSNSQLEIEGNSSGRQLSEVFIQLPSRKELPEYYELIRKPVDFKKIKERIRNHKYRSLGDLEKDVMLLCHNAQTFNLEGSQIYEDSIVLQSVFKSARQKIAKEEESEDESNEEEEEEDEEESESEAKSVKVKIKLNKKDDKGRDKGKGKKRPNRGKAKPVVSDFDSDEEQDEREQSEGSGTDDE
T2 sequence (P51532 whole entry, the tested form may be a part): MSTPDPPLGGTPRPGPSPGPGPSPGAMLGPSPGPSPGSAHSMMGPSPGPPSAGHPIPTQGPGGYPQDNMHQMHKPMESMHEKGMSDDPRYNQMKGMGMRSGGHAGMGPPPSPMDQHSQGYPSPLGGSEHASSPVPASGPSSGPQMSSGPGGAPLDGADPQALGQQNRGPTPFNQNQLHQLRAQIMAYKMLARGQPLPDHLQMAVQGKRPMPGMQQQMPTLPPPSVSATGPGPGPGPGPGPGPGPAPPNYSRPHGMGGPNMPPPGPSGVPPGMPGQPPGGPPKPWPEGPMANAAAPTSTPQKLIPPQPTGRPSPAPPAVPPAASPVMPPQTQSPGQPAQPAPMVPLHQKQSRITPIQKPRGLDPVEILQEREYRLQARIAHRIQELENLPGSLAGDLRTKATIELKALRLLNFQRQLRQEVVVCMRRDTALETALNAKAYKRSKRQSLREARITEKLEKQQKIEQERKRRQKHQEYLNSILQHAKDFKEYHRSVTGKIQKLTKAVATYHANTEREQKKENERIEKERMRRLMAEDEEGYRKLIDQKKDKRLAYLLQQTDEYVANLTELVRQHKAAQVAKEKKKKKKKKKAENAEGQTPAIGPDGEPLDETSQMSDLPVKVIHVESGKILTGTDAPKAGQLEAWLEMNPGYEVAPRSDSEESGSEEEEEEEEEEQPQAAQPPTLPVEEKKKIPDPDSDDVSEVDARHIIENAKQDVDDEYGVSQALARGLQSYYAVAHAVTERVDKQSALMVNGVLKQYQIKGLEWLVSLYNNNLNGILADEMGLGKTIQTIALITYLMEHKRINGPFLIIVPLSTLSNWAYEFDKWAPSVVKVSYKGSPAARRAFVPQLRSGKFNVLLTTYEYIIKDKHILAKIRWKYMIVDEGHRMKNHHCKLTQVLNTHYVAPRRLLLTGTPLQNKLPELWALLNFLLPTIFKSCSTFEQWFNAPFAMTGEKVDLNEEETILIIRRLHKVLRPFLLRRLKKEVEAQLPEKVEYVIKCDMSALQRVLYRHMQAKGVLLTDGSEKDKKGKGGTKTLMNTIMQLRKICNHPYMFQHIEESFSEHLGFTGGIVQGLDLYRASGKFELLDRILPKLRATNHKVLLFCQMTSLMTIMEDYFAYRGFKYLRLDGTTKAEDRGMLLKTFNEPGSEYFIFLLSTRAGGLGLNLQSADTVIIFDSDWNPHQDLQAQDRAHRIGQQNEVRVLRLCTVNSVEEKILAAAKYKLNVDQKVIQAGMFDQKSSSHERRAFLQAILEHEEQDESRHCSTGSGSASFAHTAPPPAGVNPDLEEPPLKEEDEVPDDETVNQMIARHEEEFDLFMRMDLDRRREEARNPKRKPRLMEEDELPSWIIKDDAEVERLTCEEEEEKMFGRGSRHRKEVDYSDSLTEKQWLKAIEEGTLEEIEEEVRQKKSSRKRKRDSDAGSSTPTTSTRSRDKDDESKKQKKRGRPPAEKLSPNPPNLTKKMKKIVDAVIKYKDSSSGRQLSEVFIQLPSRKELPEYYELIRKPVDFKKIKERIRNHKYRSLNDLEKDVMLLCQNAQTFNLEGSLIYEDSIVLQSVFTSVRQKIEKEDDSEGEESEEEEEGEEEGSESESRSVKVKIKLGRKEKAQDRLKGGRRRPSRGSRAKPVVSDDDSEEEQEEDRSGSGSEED

SMILES	DC50 (HiBit-BRM fusion protein)	Dmax [1]	DC50 [1]	BRM HiBit Degradation Maximum (%) (HiBit-BRM fusion protein)
Cc1ncsc1-c1ccc([C@H](C)NC(=O)[C@@H]2C[C@@H](O)CN2C(=O)[C@@H](c2cc(C3CCN(C(=O)CN4CC(c5cc6cc(-c7ccccc7O)nnc6s5)C4)CC3)no2)C(C)C)cc1 [Compound 13]	≥ 100 nM	< 50%	≥ 1000 nM	B (“B” indicates maximum degradation ≥ 50%)
Cc1ncsc1-c1ccc([C@H](C)NC(=O)[C@@H]2C[C@@H](O)CN2C(=O)[C@@H](c2cc(OCCN3CC(c4c(C)sc5nnc(-c6ccccc6O)cc45)C3)no2)C(C)C)cc1 [Compound 14]	≥ 1000 nM	< 50%	≥ 1000 nM	C (“C” indicates maximum degradation < 50%)
Cc1ncsc1-c1ccc([C@@H](C)NC(=O)[C@H]2C[C@H](O)CN2C(=O)[C@H](c2cc(OCCN3C[C@@H]4[C@H](C3)[C@H]4c3sc4nnc(-c5ccccc5O)cc4c3C)no2)C(C)C)cc1 [Compound 15]	≥ 10 nM	< 50%	≥ 1000 nM	A (“A” indicates maximum degradation ≥ 75%)
Cc1ncsc1-c1ccc([C@H](C)NC(=O)[C@@H]2C[C@@H](O)CN2C(=O)[C@@H](c2cc(OCCN3CC(Cc4sc5nnc(-c6ccccc6O)cc5c4C)C3)no2)C(C)C)cc1 [Compound 16]	≥ 10 nM	< 50%	≥ 1000 nM	A (“A” indicates maximum degradation ≥ 75%)
Cc1ncsc1-c1ccc(CNC(=O)[C@H]2C[C@H](O)CN2C(=O)[C@H](NC(=O)CCN2CC(c3sc4nnc(-c5ccccc5O)cc4c3C)C2)C(C)(C)C)cc1 [Compound 17]	≥ 1000 nM	< 50%	≥ 1000 nM	C (“C” indicates maximum degradation < 50%)
Cc1ncsc1-c1ccc(CNC(=O)[C@@H]2C[C@@H](O)CN2C(=O)[C@@H](NC(=O)CCCCC(=O)N2CC(c3sc4nnc(-c5ccccc5O)cc4c3C)C2)C(C)(C)C)cc1 [Compound 18]	≥ 1000 nM	< 50%	≥ 1000 nM	C (“C” indicates maximum degradation < 50%)
Cc1ncsc1-c1ccc(CNC(=O)[C@@H]2C[C@@H](O)CN2C(=O)[C@@H](NC(=O)CCCC(=O)N2CC(c3sc4nnc(-c5ccccc5O)cc4c3C)C2)C(C)(C)C)cc1 [Compound 19]	≥ 1000 nM	≥ 75%	≥ 1000 nM	A (“A” indicates maximum degradation ≥ 75%)
Cc1ncsc1-c1ccc(CNC(=O)[C@H]2C[C@H](O)CN2C(=O)[C@H](NC(=O)CCC(=O)N2CC(c3sc4nnc(-c5ccccc5O)cc4c3C)C2)C(C)(C)C)cc1 [Compound 20]	≥ 1000 nM	< 50%	≥ 1000 nM	C (“C” indicates maximum degradation < 50%)
Cc1ncsc1-c1ccc([C@H](C)NC(=O)[C@@H]2C[C@@H](O)CN2C(=O)[C@@H](c2cc(OCCN3C[C@@H]4[C@H](C3)[C@H]4c3c(C)sc4nnc(-c5ccccc5O)cc34)no2)C(C)C)cc1 [Compound 21]	≥ 1000 nM	< 50%	≥ 1000 nM	C (“C” indicates maximum degradation < 50%)
Cc1ncsc1-c1ccc([C@H](C)NC(=O)[C@@H]2C[C@@H](O)CN2C(=O)[C@@H](c2cc(OCCN3CC(c4sc5nnc(-c6ccccc6O)cc5c4C)C3)no2)C(C)C)cc1 [Compound 22]	≥ 10 nM	≥ 50%	≥ 10 nM	A (“A” indicates maximum degradation ≥ 75%)
Cc1ncsc1-c1ccc([C@@H](C)NC(=O)[C@H]2C[C@H](O)CN2C(=O)[C@H](c2cc(OCCN3CC(Cc4cc5cc(-c6ccccc6O)nnc5s4)C3)no2)C(C)C)cc1 [Compound 23]	≥ 100 nM	< 50%	≥ 1000 nM	B (“B” indicates maximum degradation ≥ 50%)
Cc1ncsc1-c1ccc(CNC(=O)[C@@H]2C[C@@H](O)CN2C(=O)[C@@H](NC(=O)CCN2CCC(c3cc4cc(-c5ccccc5O)nnc4s3)CC2)C(C)(C)C)cc1 [Compound 24]	≥ 1000 nM	< 50%	≥ 1000 nM	C (“C” indicates maximum degradation < 50%)
Cc1ncsc1-c1ccc([C@H](C)NC(=O)[C@@H]2C[C@@H](O)CN2C(=O)[C@@H](c2cc(O[C@@H]3CC[C@@H]3N3CCC(c4sc5nnc(-c6ccccc6O)cc5c4C)CC3)no2)C(C)C)cc1 [Compound 35, (2S,4R)-4-hydroxy-1-[(2R)-2-{3-[(1R,2S)-2-{4-[3-(2-hydroxyphenyl)-5-methylthieno[2,3-c]pyridazin-6-yl]piperidin-1-yl}cyclobutoxy]-1,2-oxazol-5-yl}-3-methylbutanoyl]-N-[(1S)-1-[4-(4-methyl-1,3-thiazol-5-yl)phenyl]ethyl]pyrrolidine-2-carboxamide]	≥ 10 nM	< 50%	≥ 1000 nM	A (“A” indicates maximum degradation ≥ 75%)
Cc1ncsc1-c1ccc([C@H](C)NC(=O)[C@@H]2C[C@@H](O)CN2C(=O)[C@@H](c2cc(O[C@H]3CC[C@@H]3N3CCC(c4sc5nnc(-c6ccccc6O)cc5c4C)CC3)no2)C(C)C)cc1 [Compound 36, (2S,4R)-4-hydroxy-1-[(2R)-2-{3-[(1S,2S)-2-{4-[3-(2-hydroxyphenyl)-5-methylthieno[2,3-c]pyridazin-6-yl]piperidin-1-yl}cyclobutoxy]-1,2-oxazol-5-yl}-3-methylbutanoyl]-N-[(1S)-1-[4-(4-methyl-1,3-thiazol-5-yl)phenyl]ethyl]pyrrolidine-2-carboxamide]	≥ 10 nM	< 50%	≥ 1000 nM	B (“B” indicates maximum degradation ≥ 50%)

Second part, led by results:

DC50 (HiBit-BRM fusion protein)	Dmax [1]	DC50 [1]	SMILES	BRM HiBit Degradation Maximum (%) (HiBit-BRM fusion protein)
≥ 1000 nM	< 50%	≥ 1000 nM	Cc1ncsc1-c1ccc(CNC(=O)[C@@H]2C[C@@H](O)CN2C(=O)[C@@H](NC(=O)CCC(=O)N2CC(c3cc4cc(-c5ccccc5O)nnc4s3)C2)C(C)(C)C)cc1 [Compound 25]	C (“C” indicates maximum degradation < 50%)
≥ 1000 nM	< 50%	≥ 1000 nM	Cc1ncsc1-c1ccc(CNC(=O)[C@@H]2C[C@@H](O)CN2C(=O)[C@@H](NC(=O)CCN2CC(c3cc4cc(-c5ccccc5O)nnc4s3)C2)C(C)(C)C)cc1 [Compound 26]	C (“C” indicates maximum degradation < 50%)
≥ 1000 nM	< 50%	≥ 1000 nM	Cc1ncsc1-c1ccc(CNC(=O)[C@@H]2C[C@@H](O)CN2C(=O)[C@@H](NC(=O)CCC(=O)N2CCC(c3cc4cc(-c5ccccc5O)nnc4s3)CC2)C(C)(C)C)cc1 [Compound 27]	B (“B” indicates maximum degradation ≥ 50%)
≥ 1000 nM	< 50%	≥ 1000 nM	Cc1ncsc1-c1ccc(CNC(=O)[C@@H]2C[C@@H](O)CN2C(=O)[C@@H](NC(=O)CCCC(=O)N2CCC(c3cc4cc(-c5ccccc5O)nnc4s3)CC2)C(C)(C)C)cc1 [Compound 28]	B (“B” indicates maximum degradation ≥ 50%)
≥ 1000 nM	< 50%	≥ 1000 nM	Cc1ncsc1-c1ccc(CNC(=O)[C@@H]2C[C@@H](O)CN2C(=O)[C@@H](NC(=O)CCCCC(=O)N2CCC(c3cc4cc(-c5ccccc5O)nnc4s3)CC2)C(C)(C)C)cc1 [Compound 29]	C (“C” indicates maximum degradation < 50%)
≥ 1000 nM	< 50%	≥ 1000 nM	Cc1ncsc1-c1ccc(CNC(=O)[C@@H]2C[C@@H](O)CN2C(=O)[C@@H](NC(=O)CCCCC(=O)N2CC(c3cc4cc(-c5ccccc5O)nnc4s3)C2)C(C)(C)C)cc1 [Compound 30]	C (“C” indicates maximum degradation < 50%)
≥ 100 nM	< 50%	≥ 1000 nM	Cc1ncsc1-c1ccc(CNC(=O)[C@@H]2C[C@@H](O)CN2C(=O)[C@@H](NC(=O)CCCC(=O)N2CC(c3cc4cc(-c5ccccc5O)nnc4s3)C2)C(C)(C)C)cc1 [Compound 31]	C (“C” indicates maximum degradation < 50%)
≥ 10 nM	< 50%	≥ 1000 nM	Cc1ncsc1-c1ccc([C@H](C)NC(=O)[C@@H]2C[C@@H](O)CN2C(=O)[C@@H](c2cc(OCCN3C[C@@H]4[C@H](C3)[C@H]4c3cc4cc(-c5ccccc5O)nnc4s3)no2)C(C)C)cc1 [Compound 32]	A (“A” indicates maximum degradation ≥ 75%)
≥ 1000 nM	< 50%	≥ 1000 nM	Cc1ncsc1-c1ccc([C@H](C)NC(=O)[C@@H]2C[C@@H](O)CN2C(=O)[C@H](c2cc(N3CCC(CN4CC(c5cc6cc(-c7ccccc7O)nnc6s5)C4)CC3)no2)C(C)C)cc1 [Compound 33]	C (“C” indicates maximum degradation < 50%)
